Our source for the Ki values is ChEMBL document CHEMBL1133835, “A unique ring-expanded acyclic nucleoside analogue that inhibits both adenosine deaminase (ADA) and guanine deaminase (GDA; guanase): synthesis and enzyme inhibition studies of 4,6-diamino-8H-1-hydroxyethoxymethyl-8-iminoimidazo[4,5-e][1,3]diazepine” (Bioorg Med Chem Lett, 2001).

Each structure is given as a SMILES string.

The target in the test is T1, Adenosine deaminase (Bos taurus, UniProt P56658).
T1 sequence (P56658 whole entry): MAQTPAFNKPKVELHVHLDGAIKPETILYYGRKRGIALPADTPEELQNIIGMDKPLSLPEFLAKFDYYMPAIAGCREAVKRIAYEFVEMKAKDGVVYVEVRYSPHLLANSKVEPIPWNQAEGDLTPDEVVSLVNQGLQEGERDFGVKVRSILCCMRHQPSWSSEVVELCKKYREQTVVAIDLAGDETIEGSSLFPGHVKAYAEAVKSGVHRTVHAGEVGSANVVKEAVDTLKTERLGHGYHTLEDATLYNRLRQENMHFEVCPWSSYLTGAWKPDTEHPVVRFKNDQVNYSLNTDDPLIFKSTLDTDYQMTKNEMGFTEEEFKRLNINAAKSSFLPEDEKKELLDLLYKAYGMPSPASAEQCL
Put plainly: Binding affinity against Adenosine deaminase from calf intestinal mucosa was determined. It is filed as tissue-based.

In general, Ki refers to the dissociation constant of the complex between target and ligand, obtained from inhibition or displacement. Regarding `CCCCCC[C@@H]([C@@H](C)O)n1cnc2c(N)ncnc21` [EHNA], the Ki was determined as 10 nM.
